Values after ≈ are worked out from the molar mass of the structure shown. Where two headings read alike, the source gives them in different places.
Tests used:
[1] = target: T1, interaction between Bcl-2 and Bax (Homo sapiens, UniProt P10415); test: intracellular fluorescence polarization energy transfer (FRET), Hela cells transfected with Bcl-2-CFP and Bax-YFP; format: cell-based; conditions: for Time for which the compound interfered with the interaction between Bcl-2 and Bax: goes with the concentration of E11; for Concentration at which the compound interfered with the interaction between Bcl-2 and Bax: goes with the time of E12
T1 construct: expressed in transfected cells; host or cells: Hela cells
Protocol: 24 hours later (please refer to FIG. 2), the cells were washed with PBS for three times. The fluorescence value was detected by GENIOS fluorescence enzyme-labelled meter (TECAN, Swiss). In time-dependent experiment, the transfected cells were inoculated in a 6-well plate, after that, 40 μM of the compound was added thereinto. 3, 6 and 24 hours later (FIG. 3), the fluorescence intensities were detected by plate reader. As for the cell group in which only Bcl-2-CFP plasmid was transfected, the values at 475 nm emission wave length and 433 nm excitation wave length were recorded. As for the cell group in which only Bax-YFP plasmid was transfected, the values at 527 nm emission wave length and 505 nm excitation wave length were recorded. […] The ratio of fluorescence intensity at 527 nm and 475 nm emission wave lengths was FRET. The FRET for the control group in which the plasmid was solely transfected was set as 1.0. […] The cellular vitality was detected by MTT method.
Wherein the concentration and time meant that the detected compound interfered with the interaction between Bcl-2 and Bax at the concentration for the time period.

GST-Bcl-2 protein = target: T2, GST-Bcl-2 protein (Homo sapiens, UniProt P10415); test: fluorescence polarization assay, competitive binding against FAM-Bid peptide; conditions: Table 3; FAM-Bid competition; table does not say whether Bcl-2 or Mcl-1; read-out: Binding constant
T2 construct: fused on or other part: GST tag on Bcl-2
Protocol: A Bid BH3 peptide (amino acids: 79-99: […]) having 21 amino acids was synthesized and marked with 6-carboxyfluorescein N-succinimidyl ester (FAM) as fluorescent tag (FAM-Bid) at the N-terminal. The reaction system used in the competitive binding experiment was GST-Bcl-2 protein (40 nM) or Mcl-1 protein, which was dissolved in the reaction buffer (100 mM K3PO4, pH 7.5; 100 μg/ml bovine γ albumin; 0.02% sodium azide) together with FAM-Bid polypeptide (5 nM). In a 96-well plate, 100 μL of the reaction system was added into each well. Then 1 μL different concentration of 3-thiomorpholinyl-8-oxo-8H-acenaphtho[1,2-b]pyrrole-9-carbonitrile mother solution to be detected dissolved in DMSO was added thereinto until the final concentration met the experimental design requirements. Meanwhile, two control groups were established, one with the reaction system only contains Bcl-2 or Mcl-1 and FAM-Bid (equivalent to 0% inhibition rate), the other with the reaction system only containing FAM-Bid peptide. After 4 hours of incubation, the 96-well plate was detected by enzyme-labelled meter. The fluorescent polarization value (mP) was tested at […]. Ki value was deduced according to calculation formula. The competitive binding constant between the compound and Bcl-2 was 310 nM.

MCF-7 cells = test: cytotoxicity depending on BAX/BAK, MTT, MCF-7 cells with or without BAX/BAK interfering plasmid; format: cell-based
Protocol: 3 ng of BAX/BAK interfering plasmid was transfected into MCF-7 cells by using calcium phosphate coprecipitation method, 24 hours later, the cells were collected. The expressions after the BAX and BAK proteins interfered with RNA was detected by Western, and the cell groups without plasmid transfection were treated similarly and were set as the control group. The transfected cells were inoculated in a 96-well plate (1×10^5 cells/well), the control experiment of the cell group without plasmid transfection was carried out in parallel. The compound 3-thiomorpholinyl-8-oxo-8 H-acenaphtho[1,2-b]pyrrole-9-carbonitrile to be detected was added thereinto according to the concentration gradient designed before the experiment. 48 hours later, the cellular vitality was detected by MTT. The experimental results were shown in FIG. 6, Gossypol as nonspecific BH3 analogue was treated in parallel.

[2] = phase solubility experiment (solubility in water before and after cyclodextrin inclusion or complexation); conditions: for solubility: thermodynamic from solid, Solubility of compounds
[3] = test system: hepatoma carcinoma cells H22; test: in vivo tumor model, subcutaneous H22 tumor in Kunming mice; conditions: H22 mouse model of Example 25; dose and route not stated at the place
Protocol: The Kunming mice (in China) were randomly divided into groups, with 10 mice in each group. The cultivated hepatoma carcinoma cells H22 were inoculated subcutaneously in the oxter of the mice with 200 μL/mouse. After bearing the cancer cells for five days, the subcutaneous tumor was formed. Then the compound 3-thiomorpholinyl-8-oxo-8H-acenaphtho[1,2-b]pyrrole-9-carbonitrile and γ-cyclodextrin inclusion compound thereof were given by peritoneal injection, and the compound to be detected included by γ-cyclodextrin was given by oral administration. The detection conditions comprise:
Blank control group: the mice were not treated in any manner after the bearing cancer;
Control group (1): the mice were given a peritoneal injection of DMSO solution every other day after the bearing cancer, 10 days in total;
Control group (2): the mice were given a peritoneal injection of cyclodextrin solution every other day after the bearing cancer, 10 days in total;
Experimental group (1): the mice were given a peritoneal injection of DMSO solution equivalent to 0.03 mg/kg BW compound every other day after the bearing cancer, 10 days in total;
Experimental group (2): the mice were given a peritoneal injection of DMSO solution equivalent to 0.3 mg/kg BW compound every other day after the bearing cancer, 10 days in total;
Experimental group (3): the mice were given a peritoneal injection of inclusion compound water solution equivalent to 0.3 mg/kg BW compound every other day after the bearing cancer, 10 days in total;
Experimental group (4): the mice were given an intragastric administration of inclusion compounds water solution equivalent to 0.3 mg/kg BW compound every other day after the bearing cancer, 10 days in total;
During the experimental period, the length-diameter (a) and short diameter (b), which was perpendicular to the length-diameter, of the tumor were detected twice every week. The gross tumor volume was determined according to the formula: ½ab^2. The survival time of the animal was observed. The tumor inhibition rate was calculated by the tumor volume on the fortieth day.

Mcl-1 = test: Western blotting, inhibition (downregulation) of Mcl-1 in tumor cells, Example 23; format: cell-based; conditions: for inhibition against Mcl-1: Western blotting, tumor cells
Protocol: (§1) The interest protein was detected by the corresponding antibody. The expression of the interest protein in the cells was detected by horseradish peroxidase-labeled secondary antibodies in combination with ECL coloration method. […] The concentration of the protein bands in the Western images were carried out semiquantitative analysis and normalization treatment with KODAK Gel Logic 1500 imaging system software.

Bcl-2 = test: Western blotting, inhibition (downregulation) of Bcl-2 in tumor cells, Example 23; format: cell-based; conditions: for inhibition against Bcl-2: Western blotting, tumor cells
Protocol: as §1

Bax protein = test: co-localization between Bax protein and chondriosome, Bax-YFP transfected MCF-7 cells; format: cell-based; conditions: for Time for which the compound drove the BAX to shift towards the chondriosome: goes with the concentration of E14; for Concentration at which the compound drove the BAX to shift towards the chondriosome: goes with the time of E15
Protocol: 5 ng of Bax-YFP plasmid was transfected into MCF-7 cells by using calcium phosphate coprecipitation method, 24 hours later, the cells were inoculated in a 6-well plate (0.2×10^6 cells/well), and 10 μM of the compound 3-thiomorpholinyl-8-oxo-8 H-acenaphtho[1,2-b]pyrrole-9-carbonitrile to be detected was added thereinto. 6 hours later, the cells were washed with PBS and hatched away from light with 50 nM Mito Tracker Red CMXRos (chondriosome specific probes; red) for 10 minutes. Then the cells were washed with PBS for three times, and the fluorescent image was scanned with Radiance2000 laser confocal microscopy (Bio-Rad, USA). Meanwhile, dual channel scanning was carried out, one channel was used to scan the green fluorescence of Bax-YFP, and the other channel was used to scan the red fluorescence of the CMXRos probe for indicating the chondriosome. […] When the Bax protein was localized on the chondriosome, the green and red fluorescence was superimposed into orange, as shown in FIG. 4.
Other 8 compounds were detected by the same experimental method as described above. […] Wherein the concentration and time meant that the detected compound simulated the BH3-only protein and driven the BAX to shift towards the chondriosome at the concentration for the time period.

[4] = Table 1, compound per se, before inclusion

T1 sequence (P10415 whole entry): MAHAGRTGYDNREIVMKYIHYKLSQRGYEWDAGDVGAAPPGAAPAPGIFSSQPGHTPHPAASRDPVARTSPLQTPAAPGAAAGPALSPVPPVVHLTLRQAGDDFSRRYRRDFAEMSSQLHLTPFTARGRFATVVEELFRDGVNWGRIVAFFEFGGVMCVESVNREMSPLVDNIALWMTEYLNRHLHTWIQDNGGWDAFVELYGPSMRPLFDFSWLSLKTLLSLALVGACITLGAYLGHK
T2 sequence (P10415 whole entry, the tested form may be a part): as the sequence (P10415 whole entry) above

Molecule: 3-phenoxy-8-oxo-8H-acenaphtho[1,2-b]pyrrole-9-carboxylate
- Time for which the compound interfered with the interaction between Bcl-2 and Bax [1]: 6 h
- Concentration at which the compound interfered with the interaction between Bcl-2 and Bax [1]: 10.0 µM
- Ki (GST-Bcl-2 protein): 0.79 µM

Molecule: N#CC1=C2C(=NC1=O)c1cccc3c(C(=O)c4cccc(F)c4)ccc2c13 [3-(3-fluorophenylformyl)-8-oxo-8H-acenaphtho[1,2-b]pyrrole-9-carbonitrile]
- Time for which the compound interfered with the interaction between Bcl-2 and Bax [1]: 6 h
- Concentration at which the compound interfered with the interaction between Bcl-2 and Bax [1]: 10.0 µM
- dependence of cytotoxicity on BAX/BAK (MCF-7 cells): absolute dependence on BAX/BAK

Molecule: N#CC1=C2C(=NC1=O)c1cccc3c(Sc4ccc(N)cc4)ccc2c13 [3-(4-aminophenylthio)-8-oxo-8H-acenaphtho[1,2-b]pyrrole-9-carbonitrile]
- solubility [2, 4]: 0.25 µM (≈ 0.0884 µg/mL)

Molecule: O=C(O)C1=C2C(=NC1=O)c1cccc3c(Sc4ccc(Br)cc4)ccc2c13 [3-(4-bromophenylthio)-8-oxo-8H-acenaphtho[1,2-b]pyrrole-9-carboxylic acid]
- solubility ([2]; Table 2, compound per se, before complexation): 0.55 µM (≈ 0.24 µg/mL)
- tumor inhibition rate [3]: 45%

Molecule: COc1ccc(Oc2ccc3c4c(cccc24)C2=NC(=O)C(C#N)=C23)cc1 [3-(4-methoxyphenoxy)-8-oxo-8H-acenaphtho[1,2-b]pyrrole-9-carbonitrile]
- solubility [2, 4]: 0.32 µM (≈ 0.113 µg/mL)

Molecule: Cc1ccc(Oc2ccc3c4c(cccc24)C2=NC(=O)C(C#N)=C23)cc1 [3-(p-methylphenoxy)-8-oxo-8H-acenaphtho[1,2-b]pyrrole-9-carbonitrile]
- solubility [2, 4]: 0.25 µM (≈ 0.0841 µg/mL)

Molecule: N#CC1=C2C(=NC1=O)c1cccc3c(OC4CCOCC4)ccc2c13 [3-(tetrahydro-2H-pyranyl-4-oxo)-8-oxo-8H-acenaphtho[1,2-b]pyrrole-9-carbonitrile]
- Ki (GST-Bcl-2 protein): 0.6 µM

Molecule: CC(C)(C)NC(=O)C1=C2C(=NC1=O)c1cccc3c(Oc4ccccc4)ccc2c13 [3-phenoxy-8-oxo-8H-acenaphtho[1,2-b]pyrrole-9-N-tert-butylamide]
- downregulation of Mcl-1 protein, semiquantitative analysis (band concentration, control = 1) (Mcl-1; 6 hours): 0.99
- downregulation of Mcl-1 protein, semiquantitative analysis (band concentration, control = 1) (Mcl-1; 12 hours): 0.99
- downregulation of Mcl-1 protein, semiquantitative analysis (band concentration, control = 1) (Mcl-1; 18 hours): 0.78
- downregulation of Mcl-1 protein, semiquantitative analysis (band concentration, control = 1) (Mcl-1; 24 hours): 0.51
- inhibition against Mcl-1 (Mcl-1): had the inhibition against Bcl-2 and Mcl-1 proteins
- downregulation of Bcl-2 protein, semiquantitative analysis (band concentration, control = 1) (Bcl-2; 2 hours): 0.80
- downregulation of Bcl-2 protein, semiquantitative analysis (band concentration, control = 1) (Bcl-2; 6 hours): 0.56
- inhibition against Bcl-2 (Bcl-2): had the inhibition against Bcl-2 and Mcl-1 proteins

Molecule: O=C(O)C1=C2C(=NC1=O)c1cccc3c(Oc4ccccc4)ccc2c13 [3-phenoxy-8-oxo-8H-acenaphtho[1,2-b]pyrrole-9-carboxylic acid]
- dependence of cytotoxicity on BAX/BAK (MCF-7 cells): absolute dependence on BAX/BAK
- Time for which the compound drove the BAX to shift towards the chondriosome (Bax protein): 6 h
- Concentration at which the compound drove the BAX to shift towards the chondriosome (Bax protein): 10.0 µM

Molecule: N#CC1=C2C(=NC1=O)c1cccc3c(Sc4ccccc4)ccc2c13 [3-phenylthio-8-oxo-8H-acenaphtho[1,2-b]pyrrole-9-carbonitrile]
- solubility [2, 4]: 0.22 µM (≈ 0.0744 µg/mL)

Molecule: NC(=O)C1=C2C(=NC1=O)c1cccc3c(N4CCSCC4)ccc2c13 [3-thiomorpholinyl-8-oxo-8H-acenaphtho[1,2-b]pyrrole-9-carboxamide]
- tumor inhibition rate [3]: 45%

Molecule: CC(C)c1ccc(Oc2ccc3c4c(cccc24)C2=C(C#N)C(=O)N=C23)cc1 [4-(4-isopropylphenoxy)-8-oxo-8H-acenaphtho[1,2-b]pyrrole-9-carbonitrile]
- solubility [2, 4]: 0.12 µM (≈ 0.0437 µg/mL)

Molecule: N#CC1=C2C(=NC1=O)c1ccc(Oc3ccccc3)c3cccc2c13 [4-phenoxy-8-oxo-8H-acenaphtho[1,2-b]pyrrole-9-carbonitrile]
- Time for which the compound interfered with the interaction between Bcl-2 and Bax [1]: 6 h
- Concentration at which the compound interfered with the interaction between Bcl-2 and Bax [1]: 10.0 µM
- Ki (GST-Bcl-2 protein): 0.89 µM
- Time for which the compound drove the BAX to shift towards the chondriosome (Bax protein): 6 h
- Concentration at which the compound drove the BAX to shift towards the chondriosome (Bax protein): 10.0 µM

Molecule: N#CC1=C2C(=NC1=O)c1c(OCc3cccs3)ccc3cccc2c13 [6-(thienyl-2-methoxy)-8-oxo-8H-acenaphtho[1,2-b]pyrrole-9-carbonitrile]
- Time for which the compound interfered with the interaction between Bcl-2 and Bax [1]: 6 h
- Concentration at which the compound interfered with the interaction between Bcl-2 and Bax [1]: 10.0 µM
- dependence of cytotoxicity on BAX/BAK (MCF-7 cells; MCF-7 cells, 48 hours, MTT): absolute dependence on BAX/BAK
- Ki (GST-Bcl-2 protein): 0.56 µM
- Solubility of compounds [2, 4]: 0.35 µM
- Time for which the compound drove the BAX to shift towards the chondriosome (Bax protein): 6 h
- Concentration at which the compound drove the BAX to shift towards the chondriosome (Bax protein): 10.0 µM
- downregulation of Mcl-1 protein, semiquantitative analysis (band concentration, control = 1) (Mcl-1; 6 hours): 0.99
- downregulation of Mcl-1 protein, semiquantitative analysis (band concentration, control = 1) (Mcl-1; 12 hours): 0.99
- downregulation of Mcl-1 protein, semiquantitative analysis (band concentration, control = 1) (Mcl-1; 18 hours): 0.54
- downregulation of Mcl-1 protein, semiquantitative analysis (band concentration, control = 1) (Mcl-1; 24 hours): 0.33
- inhibition against Mcl-1 (Mcl-1): had the inhibition against Bcl-2 and Mcl-1 proteins
- downregulation of Bcl-2 protein, semiquantitative analysis (band concentration, control = 1) (Bcl-2; 2 hours): 0.69
- downregulation of Bcl-2 protein, semiquantitative analysis (band concentration, control = 1) (Bcl-2; 6 hours): 0.40
- inhibition against Bcl-2 (Bcl-2): had the inhibition against Bcl-2 and Mcl-1 proteins

From patent US20110251188A1, “ACENAPHTHO HETEROCYCLE COMPOUNDS, CYCLODEXTRIN INCLUSION COMPOUNDS AND COMPLEXES, AND USES IN THE MANUFACTURES OF BH3 PROTEIN ANALOGUE, BCL-2 FAMILY PROTEIN INHIBITORS THEREOF” (DALIAN UNIVERSITY OF TECHNOLOGY, priority 2008, published 2011)
